Here are results for two substances from US10137171B2, “Methods of treatment using a pentapeptide derived from the C-Terminus of Glucagon-Like Peptide 1 (GLP-1)” (The General Hospital Corporation, priority 2011, dated 2018).

Data set [1] deals with insulin-resistant isolated mouse hepatocytes. Nature of the data set: Glucose production assay in isolated hepatocytes. Format: cell-based. Conditions: stimulated by cAMP/dexamethasone/lactate; basal glucose production not suppressed. The source says: FIG. 8 is a bar graph showing suppression of glucose production by the pentapeptide GLP-1(32-36)amide (LVKGRamide (SEQ ID NO:1)) in insulin-resistant hepatocytes. Mice (male, C57bl/6) from 12-19 weeks of age were fasted overnight (16 hrs) and primary hepatocytes were isolated using a collagen and perfusion gradient purification. Cells were first seeded using a Dulbecco's modified Eagle's medium (DMEM) supplemented with 10% FBS, 1 g/L glucose, 2 mmol/1 sodium pyruvate, 1 micromol/L dexamethasone, and 0.1 micromol/L insulin, and later maintained in DMEM with 0.2% BSA, 1 g/L glucose, 0.1 micromol/L dexamethasone, and lnmol/L insulin. […] The readings were then normalized to total protein content determined from whole-cell lysates. […]
Primary hepatocytes (2×10^5 cells per well in twelve-well plates) were pre-treated with GLP-1(32-36)amide for 1 hour followed by the stimulation of insulin resistance by the addition of cAMP (10 microM)/dexamethasone ([…])/sodium lactate (2 mM) in glucose-free DMEM without phenol red. […] The readings were then normalized to total protein content determined from whole-cell lysates.

Data set [2] can be described thus: Plasma peptide concentrations by LC-MS after continuous infusion. Format: in vivo, mouse. The protocol: (§1) Mice were given single i.v. injections of the propeptide, GLP-1(9-36)amide and blood samples were taken at times 2, 5, and 10 min. Plasma was assayed for the presence of GLP-1(9-36)amide, GLP-1(28-36)amide, and GLP-1(32-36)amide by electron spray mass spectrometry (ES-MS. Pooled plasma samples collected after a 28 day continuous infusion of GLP-1(9-36)amide or GLP-1(28-36)amide in mice were assayed for peptide concentrations by liquid chromatography mass spectrometry (LC-MS).

A further data set relates to diet-induced obese mice. Nature of the data set: Intraperitoneal glucose tolerance test (ipGTT). Conditions: glucose 2 g/kg BW ip, overnight fasted, VHFD 24 weeks. In kind it is in vivo, mouse. On the procedure: FIGS. 5C-D are a pair of line graphs Plasma glucose levels (FIG. 5C) and (FIG. 5D) Plasma insulin levels after an intraperitoneal glucose administration ([…] BW ip) in overnight fasted mice fed in VHFD for 24-weeks and 16-weeks of continuous infusions of vehicle or GLP-1(32-36)amide. ***p<4E-03 vehicle vs. GLP-1(32-36)amide, *p<0.01 vehicle vs. GLP-1(32-36)amide, **p<0.004 vehicle vs. GLP-1(32-36)amide, *****p<1.7E-05 vehicle vs. GLP-1(32-36)amide, ****p<6.7 E-04 vehicle vs. GLP-1(32-36)amide.
Mice were maintained in a normal light/dark cycle according to the standard protocols of the MGH Animal Care and Use Committee. Mice were tested with age matched or litter mate controls and 6 mice per group are required. […] The following morning the mice were prepared for the glucose tolerance test: animals were weighed, the tail was nicked with a fresh razor blade by a horizontal cut of the very end, ˜35 to 50 microliters of blood is massaged from the tail to an eppendorf tube which is immediately placed on ice, baseline blood glucose is measured by the glucose oxidase method using a Glucometer Elite glucometer, and 2 grams/kg body weight of 20% D-glucose is drawn up in a Beckton Dickenson D 29 gage ½″ insulin syringe (one unit of D-glucose for every gram of body weight). Animals were then transferred to individually labeled 1000 cc cardboard soup cups with the lid liners removed.
Following animal preparation, glucose was injected into the intraperitoneal cavity. At 10, 20, 30, 60, 120, and 140 minutes blood glucose is sampled from the tail of each mouse by gently massaging a small drop of blood onto the glucometer strip. Glucose injections and blood glucose sampling is timed to take approximately the same amount of time per animal (i.e. 25 animals are injected in 12 minutes and blood glucose sampling of those same 25 animals should also take about 12 minutes) so that the sample times are accurate for each animal.

The nature of data set [3]: Mass spectrometry of mouse plasma after i.v. injection of GLP-1(9-36)amide. In kind it is in vivo. The protocol: FIG. 7B is a line graph showing the results of experiments involving intravenous push injection of GLP-1(9-36)amide, 32-36 amide, and […] into mice, collecting blood plasma at 2, 5, and 10 min, and analyzing the peptide profiles by liquid chromatography-mass spectrometry (LC-MS). Relative amounts of peptides at times indicated are shown. Y-axis, arbitrary units
as §1

Setting [4] is: pooled mouse plasma after four weeks infusion.

Where no end group is shown, it is not given here.

In the case of “FIAWLVKGR-NH2 [GLP-1(28-36)amide, FIAWLVKGRamide]”, the “glucose production (formation)” value in data set [1] is “dose-dependently suppressed”. Moreover, in data set [2] (mouse, plasma, 2.0 mg/ml in the osmopump, four weeks infusion, read-out: plasma levels of GLP-1(28-36)amide in mice infused with GLP-1(28-36)amide), the level at time molar at 672 h was approximately 0.24 nM. In data set [2] (setting [4]), the “plasma levels of GLP-1(28-36)amide in mice infused with GLP-1(9-36)amide” value is approximately 0.1 nM. For the same substance, in the data set with diet-induced obese mice (16 weeks infusion (FIG. 5C)), the “glycemic response in ipGTT” value is reported as “normal glycemic response”. Also, in the data set on diet-induced obese mice (16 weeks infusion (FIG. 5D)), the “insulin response in ipGTT” value was “strong insulin response”.
Regarding GLP-1(9-36)amide, the “presence of nona and pentapeptides in plasma after injection of GLP-1(9-36)amide” value in data set [3] (mouse plasma 2 min after i.v. injection, mass spectrometry) was “readily detected”. Also, the “conversion of GLP-1(9-36)amide to the nona and pentapeptides in the circulation” value in data set [3] (mouse plasma, i.v. pulse injection) is given as “rapidly converted”. In data set [2] (setting [4]), the “plasma concentration of GLP-1(9-36)amide during its continuous infusion” value is on record as “not detectable”.
